In patent publication US20250262140A1, “Compositions and Method of Use for Hair Straightening and Shaping” (Olaplex, Inc., priority 2020, published 2025):

Tests used:
[1] = Peptide stability to shampoo washes, fluorescence of dye-labeled peptide on hair (Example 9); assay type: binding; details: Alexa Fluor 647 labeled peptide 1 mg/mL; virgin (FIG. 9a) and bleached (FIG. 9b) hair
Description: To separate solutions of 500 μL of DI water was added 1 mg of one of the peptides corresponding to SEQ ID NOs. 1 and 2-17. Then, a solution of 84 mg of sodium bicarbonate in 1 mL of DI water was prepared, and 12 μL of this solution was added to each peptide solution. Immediately prior to conjugation, 5 mg of Alexa Fluor 647 NHS ester (Thermo Fisher Scientific) dye molecule was dissolved in 500 μL of DMSO, and 15 μL of this solution was added to each peptide solution. After the dye was added, the solution was incubated at 4° C. in the dark for 16 hours. Removal of unbound dye molecules was carried out using a PD MiniTrap G-10 column (Cytiva) using DI water as the elutant. Fractions containing dye-labeled peptide were pooled and diluted to final peptide concentrations of 1 mg/mL.
Hair samples were then treated according to Example 8, except that during treatment with peptide, hair was treated with a single dye-labeled peptide corresponding to SEQ ID NOs. 1 and 2-17. For each set of conditions, three separate straightening protocols were performed.
Fluorescence images were collected on a EVOS M7000 Imaging System (Thermo Fisher Scientific) using a Cy5 filter set. Images were collected using a 0.1 second exposure time at a light intensity of 0.0023. Following fluorescence measurements, hair samples were then washed with shampoo an additional 9 times, towel dried, and fluorescently imaged again.
Image files were processed as 16-bit grayscale images using ImageJ software. […] The average and standard deviation of fluorescence intensity in the remaining regions (corresponding to hair strands containing fluorescently labeled peptides) was then directly calculated.

[2] = Hair straightening, treatment with lye and hydrogen peroxide (Example 2); details: 1 mg/mL peptide; after 10 shampoo wash/dry cycles
Description: (§1) Tresses of curly Brazilian hair were cut into ½ inch wide samples. The tresses were then washed with shampoo and allowed to air dry. The hair then soaked in a solution of sodium hydroxide pH 12 for 30 minutes at room temperature. After this time, the hair was rinsed with DI water. The hair was then blow dried under medium heat while gently pulling the hair into a straight shape. A flat iron was then applied to the hair at 400° F.
Six individual solutions of each designed keratin binding peptide corresponding to SEQ ID NO. 3 through SEQ ID NO. 8 were dissolved in DI water at a concentration of 1 mg/ml and then applied to individual hair samples until the hair sample was saturated, and the hair sample was allowed to sit for 30 minutes at room temperature. The hair sample was then blow dried under medium heat while gently pulling the hair into a straight shape. A flat iron was then applied to the hair at 400° F.
L'Oreal® Oreor Creme 40 volume developer was then applied to the hair samples until the hair sample was saturated, and then allowed to sit for 30 minutes at room temperature. The hair samples were then rinsed with DI water.
(§2) Each straightened hair sample was washed with shampoo and allowed to air dry, and this washing/drying procedure was repeated a total of 10 times. […] There was little identifiable difference in efficacy among the six peptides, although peptides corresponding to SEQ ID NO. 5, SEQ ID NO. 6, SEQ ID NO. 7 and SEQ ID NO. […] 3 and SEQ ID NO.4.

[3] = Hair straightening, treatment with heat only (Example 1); details: 1 mg/mL peptide; after 10 shampoo wash/dry cycles
Description: Tresses of curly Brazilian hair were cut into ½ inch wide samples. The tresses were then washed with shampoo and allowed to air dry. The hair was straightened using a flat iron at 460° F. Once the hair was visibly straight, the hair was wrapped tightly in aluminum foil. A flat iron was applied to a section of the wrapped hair by holding the flat iron to the section for 10 seconds. This process was repeated until all sections of the hair were flat ironed.
Six individual solutions of each peptide corresponding to SEQ ID NO. 3 through SEQ ID NO 8 were dissolved in de-ionized (“DI”) water at a concentration of about 1 milligram per milliliter (“mg/mL”) and then applied to separate hair samples until the hair sample was saturated. The saturated hair was allowed to sit for 1 hour at 37° C. The hair was then blow dried under medium heat while gently pulling the hair into a straight shape. A flat iron was then applied to the hair at 400° F.
as §2, with “The” for “Each”, “hair” for “hair sample”, “six designed keratin binding” for “six”, “5” for “5,”

[4] = Hair straightening, treatment with glutathione reductase and hydrogen peroxide (Example 4); details: 1 mg/mL peptide, 30 minutes; glutathione reductase/glutathione/NADP relaxation, 40 volume developer fixation; after 10 shampoo wash/dry cycles; only slight waves remained
Description: Tresses of curly Brazilian hair were cut into ½ inch wide samples. The tresses were then washed with shampoo and allowed to air dry. The hair then soaked in a solution of glutathione reductase (0.01 mg/mL), glutathione (100 mg/mL), and nicotinamide adenine dinucleotide phosphate (0.083 mg/mL) in 50 mM sodium phosphate buffer pH 8 for 30 minutes at room temperature. After this time, the hair was rinsed with DI water. The hair was then blow dried under medium heat while gently pulling the hair into a straight shape. A flat iron was then applied to the hair at 400° F.
(§3) A solution of a peptide corresponding to SEQ ID NO.8 in DI water at a concentration of 1 mg/mL was then applied to har until the hair was saturated, and the hair was allowed to sit for 30 minutes at room temperature. The hair was then blow dried under medium heat while gently pulling the hair into a straight shape. A flat iron was then applied to the hair at 400° F.
L'Oreal® Oreor Creme 40 volume developer was then applied to the hair until the hair was saturated, and the hair was allowed to sit for 30 minutes at room temperature. The hair was then rinsed with DI water.
(§4) The straightened hair was washed with shampoo and allowed to air dry, and this washing/drying procedure was repeated a total of 10 times.

[5] = Hair straightening, treatment with glutathione and glucose oxidase (Example 5); details: 1 mg/mL peptide, 30 minutes; glutathione pH 9 relaxation, glucose oxidase/glucose fixation; after 10 shampoo wash/dry cycles; only slight waves remained
Description: Tresses of curly Brazilian hair were cut into ½ inch wide samples. The tresses were then washed with shampoo and allowed to air dry. The hair then soaked in a solution of glutathione (100 mg/mL) in sodium hydroxide pH 9 for 30 minutes at room temperature. After this time, the hair was rinsed with DI water. The hair was then blow dried under medium heat while gently pulling the hair into a straight shape. A flat iron was then applied to the hair at 400° F.
as §3, with “of the” for “of a”, “to hair” for “to har”
(§5) A solution of glucose oxidase (2 mg/mL) and glucose (18 mg/mL) in 50 mM sodium phosphate buffer pH 5.8 was then applied to the hair until the hair was saturated, and the hair was allowed to sit for 30 minutes at room temperature. The hair was then rinsed with DI water.
as §4

[6] = Hair straightening, treatment with lye and glucose oxidase (Example 3); details: 1 mg/mL peptide, 30 minutes; NaOH pH 12, glucose oxidase/glucose fixation; after 10 shampoo wash/dry cycles; only slight waves remained
Description: as §1
A solution of the peptide corresponding to SEQ ID. NO. 8 in DI water at a concentration of 1 mg/mL was then applied to hair sample until the hair sample was saturated, and the hair was allowed to sit for 30 minutes at room temperature. The hair was then blow dried under medium heat while gently pulling the hair into a straight shape. A flat iron was then applied to the hair at 400° F.
as §5, §4

[7] = Hair straightening, treatment with ammonium thioglycolate and hydrogen peroxide (Example 6); details: 1 mg/mL peptide, 30 minutes; ammonium thioglycolate 10% v/v pH 10, hydrogen peroxide 2% v/v; after 30 shampoo wash/dry cycles; treated samples with and without peptide
Description: Tresses of curly Brazilian hair were cut into ½ inch wide samples. The tresses were then washed with shampoo and allowed to air dry. The hair then soaked in a solution of ammonium thioglycolate (10% v/v) in sodium hydroxide pH 10 for 30 minutes at room temperature. After this time, the hair was rinsed with DI water. The hair was then blow dried under medium heat while gently pulling the hair into a straight shape. A flat iron was then applied to the hair at 400° F.
as §3, with “In some samples, a solution” for “A solution”, “of the” for “of a”, “to hair” for “to har”, “temperature. In these samples, the” for “temperature. The”
For all hair samples, a solution of hydrogen peroxide (2% v/v) was then applied to the hair until the hair was saturated, and the hair was allowed to sit for 30 minutes at room temperature. The hair was then rinsed with DI water.
The straightened hair was washed with shampoo and allowed to air dry, and this washing/drying procedure was repeated a total of 30 times.

Substance	change in fluorescence intensity between 1 and 10 shampoos (retention of peptide in hair) [1]	straightening efficiency compared among the six peptides (vs SEQ ID NO. 3 and SEQ ID NO. 4) [2]	straightening efficiency compared among the six peptides (vs SEQ ID NO. 3 and SEQ ID NO. 4) [3]	further results
SEQ ID NO. 15: differs from SEQ ID NO. 7 in lacking Q13C; 10 cysteine substitutions, unique Q3C and/or Q8C (CGCCCHLCCCFCQYKKCELFPKC)	strong retention			
SEQ ID NO. 11: Q13C substitution relative to SEQ ID NO. 1 plus 2 additional cysteine substitutions (QGQVQHLQCAFSCYKKCELFPK)	no statistically significant decrease			
SEQ ID NO. 5: designed keratin binding peptide with cysteine substitutions relative to SEQ ID NO: 1 (QGQCCHLQCCFSQYKKCELFPKC)		slightly higher straightening efficiency	slightly higher straightening efficiency	
SEQ ID NO. 14: differs from SEQ ID NO. 6 in lacking the Q13C substitution (CGQCCHLQCCFCQYKKCELFPKC)	significant decrease			
SEQ ID NO. 7: cysteine-substituted peptide with Q13C; SEQ ID NO. 15 is the same without Q13C (CGCCCHLCCCFCCYKKCELFPKC) [cysteine-substituted peptide with Q13C; 15 is the same without Q13C]	no statistically significant decrease	slightly higher straightening efficiency	slightly higher straightening efficiency	
SEQ ID NO. 6: cysteine-substituted peptide with Q13C; SEQ ID NO. 14 is the same without Q13C (CGQCCHLQCCFCCYKKCELFPKC) [cysteine-substituted peptide with Q13C; 14 is the same without Q13C]	no statistically significant decrease	slightly higher straightening efficiency	slightly higher straightening efficiency	
SEQ ID NO. 4: Q13C substitution relative to SEQ ID NO. 1 plus 3 additional cysteine substitutions (QGQVCHLQCAFSCYKKCELFPK)	no statistically significant decrease			
SEQ ID NO. 8: cysteine-substituted peptide with Q13C; SEQ ID NO. 16 is the same without Q13C (CGQVCHLQCAFSCYKKCELFPKC) [cysteine-substituted peptide with Q13C; 16 is the same without Q13C]	no statistically significant decrease	slightly higher straightening efficiency	slightly higher straightening efficiency	hair straightening compared to untreated samples [4]: significantly straightened; hair straightening compared to untreated samples [5]: significantly straightened; hair straightening compared to untreated samples [6]: significantly straightened; hair straightening compared to an untreated sample [7]: significantly straightened
SEQ ID NO. 16: differs from SEQ ID NO. 8 in lacking the Q13C substitution (CGQVCHLQCAFSQYKKCELFPKC)	significant decrease			
